Measured values published in patent US20040076954A1, “Genomics-driven high speed cellular assays, development thereof, and collections of cellular reporters” (IRM, LLC, priority 2001, published 2004).

How the values were obtained:
[1] = tested on: Mouse macrophage cell line RAW264.7; assay: Antibiotic selection of transfected RAW264.7 cells; assay type: cell-based; settings: transfected RAW cells
Procedure: Mouse macrophage cell line RAW264.7 from the ATCC was used for reporter gene assays. RAW cells were cultured at 37° C. in Dulbecco's modified Eagle medium (GibcoBRL), supplemented with 10% defined fetal bovine serum (low endotoxin, Hyclone). Transient transfection was carried out in 6 well plates with SuperFect Transfection Reagent (Qiagen) using the protocol provided by the supplier. In brief, 6×10^5 cells were seeded in each well the day before transfection. 2 μg of DNA and 10 μl of SuperFect reagent were added to the cells. For the purposed of selecting stable cell lines, vectors containing antibiotic resistant genes (e.g. hygromycin, puromycin and blasticidin) were also included at a ratio of 1:5 or 1:10 to the reporter DNA. 48 hours post-transfection, the cells were transferred into 10 cm dishes. An antibiotic was added at 150 μg/ml of hygromycin, 400 ng/ml of puromycin, or 3 μg/ml of blasticidin. […] Two weeks later, the cells which sustained antibiotic selection were seeded into three 96 well plates at the density of 0.3 cell/well. After 3-4 weeks, 44 single clones each of MALH (hygromycin) and MALB (blasticidin) were harvested and assayed. Pools of MALH or MALB were also combined for population experiments. The total selection time was 5-6 weeks.

[2] = tested on: HepG2 (human hepatoma cells); assay: Gene chip (Affymetrix) expression profiling of HGF-treated hepatocyte cells; assay type: cell-based; settings: HepG2, 75 ng/ml HGF 4 hours vs untreated
Procedure: A method assessing the responsiveness of gene transcript to Hepatocyte Growth Factor (HGF) in a human hepatocyte cell line is exemplified.
Human hepatocyte cells, HepG2 (human hepatoma cells ATCC accession no. HB-8065), were plated at 8×10^5 cells per ml in a 4 separate wells of a 6-well plate and incubated overnight at 37° C., 5% CO2. Eighteen hours after plating, 2 wells of cells were treated with 75 ng/ml of HGF continuously for 4 hours, while two samples were left untreated. Cells were harvested by 1×PBS wash, scraped into a 15 ml conical tube and placed on ice. Samples were centrifuged to pellet the cells, flash frozen on dry ice and submitted for RNA extraction.
The following protocol was used to isolate total RNA from the 2 untreated and 2 treated samples:
The following protocol was used to generate cDNA then cRNA from the total RNA preparation:
The following protocol was used to hybridize the cRNA to gene chips (Affymetrix):
Following the hybridization, the chips are analyzed for relative fluorescence intensity corresponding to each set of oligonucleotides. The location of each oligonucleotide and the gene it represents on the array is known. Using, for example, Microsoft Excel, a list of each oligonucleotide, corresponding gene and relative intensity are recorded and saved. The data sets for treated and untreated are compared side-by-side for average-fold change. The resulting list is parsed by magnitude fold-change and can be represented as text (Excel), or visually (Gene-Spring or Tree-view).
The following details the results of a chip study. […] The list begins with the greatest fold induction (FC) and ends with greatest fold repression.

CN(CC[C@H](N)CC(=O)N[C@H]1C=C[C@H](n2ccc(N)nc2=O)O[C@@H]1C(=O)O)C(=N)N [blasticidin]
cell death within 3 days of antibiotic selection ([1]; 3 μg/ml blasticidin): Massive cell death

COc1ccc(C[C@H](N)C(=O)N[C@H]2[C@@H](O)[C@H](n3cnc4c(N(C)C)ncnc43)O[C@@H]2CO)cc1 [puromycin]
cell death within 3 days of antibiotic selection ([1]; 400 ng/ml puromycin): not

Hepatocyte Growth Factor [HGF]
FC (fold change) 277_at myeloid cell differentiation protein (MCL1) (L08246) [2]: 6 fold | FC (fold change) 529_at dual-specificity protein phosphatase (U15932) [2]: 5 fold | FC (fold change) 660_at mitochondrial 1,25-dihydroxyvitamin D3 24-hydroxylase (L13286) [2]: 9 fold | FC (fold change) 1237_at IEX-1 radiation-inducible immediate-early gene (S81914) [2]: 8 fold | FC (fold change) 1379_at HUMECK protein tyrosine kinase (M59371) [2]: 8 fold | FC (fold change) 1890_at TGF-beta superfamily protein (AB000584) [2]: 5 fold | FC (fold change) 2057_g_at fibroblast growth factor (FGF) receptor-1 (M34641) [2]: 5 fold | FC (fold change) 31888_s_at IPL (AF001294) [2]: 14 fold | FC (fold change) 32786_at jun-B (X51345) [2]: 7 fold | FC (fold change) 33146_at myeloid cell differentiation protein (MCL1) (L08246) [2]: 6 fold | FC (fold change) 34476_r_at epiregulin (D30783) [2]: 15 fold | FC (fold change) 34898_at amphiregulin (AR) (M30704) [2]: 13 fold | FC (fold change) 35372_r_at beta-thromboglobulin-like protein (M17017) [2]: 8 fold | FC (fold change) 35454_at KIAA0450 protein (AB007919) [2]: 5 fold | FC (fold change) 35597_at C8FW phosphoprotein (AJ000480) [2]: 7 fold | FC (fold change) 36097_at transcription factor ETR101 (M62831) [2]: 5 fold | FC (fold change) 36324_at A2b adenosine receptor (X68487) [2]: 6 fold | FC (fold change) 36344_at proteinase-activated receptor-2 (U34038) [2]: 7 fold | FC (fold change) 36345_g_at proteinase-activated receptor-2 (U34038) [2]: 8 fold | FC (fold change) 36543_at placental tissue factor (J02931) [2]: 7 fold | FC (fold change) 36711_at novel MAFF LIKE protein (AL021977) [2]: 8 fold | FC (fold change) 36742_at putative zinc finger protein (ZNFB7) (U34249) [2]: 5 fold | FC (fold change) 37680_at gravin (U81607) [2]: 7 fold | FC (fold change) 38125_at beta-migrating plasminogen activator inhibitor I (M14083) [2]: 13 fold | FC (fold change) 38247_at proteinase activated receptor-2 mRNA, 3UTR (U67058) [2]: 9 fold | FC (fold change) 38772_at CYR61 (Y11307) [2]: 9 fold | FC (fold change) 39105_at vasodilator-stimulated phosphoprotein (VASP) (Z46389) [2]: 11 fold | FC (fold change) 39248_at za55a01.s1 cDNA (N74607) [2]: 6 fold | FC (fold change) 40385_at chemokine exodus-1 mRNA (U64197) [2]: 19 fold | FC (fold change) 40614_at SHB (X75342) [2]: 8 fold | FC (fold change) 41193_at DUSP6 (AB013382) [2]: 6 fold | FC (fold change) 41524_at inositol polyphosphate 1-phosphatase (L08488) [2]: 6 fold | FC (fold change) 1974_s_at p53 cellular tumor antigen (X02469) ([2]; negative = repression): −5 fold | FC (fold change) 2089_s_at H06628 similar to ERBB-3 receptor protein-tyrosine kinase precursor ([2]; negative = repression): −5 fold | FC (fold change) 32787_at epidermal growth factor receptor (HER3) (M34309) ([2]; negative = repression): −8 fold | FC (fold change) 36048_at HRIHFB2436 (AB015342) ([2]; negative = repression): −5 fold | FC (fold change) 37487_at KIAA1093 protein (AB029016) ([2]; negative = repression): −5 fold
